Consider 21 compounds from ChEMBL document CHEMBL1136235, “Synthesis and biological activity of piperazine-based dual MMP-13 and TNF-alpha converting enzyme inhibitors” (Bioorg Med Chem Lett, 2003).

SMILES strings stand for the structures.

For data set [1], the target named is T1, Interstitial collagenase (Homo sapiens, UniProt P03956).
T1 sequence (P03956 whole entry): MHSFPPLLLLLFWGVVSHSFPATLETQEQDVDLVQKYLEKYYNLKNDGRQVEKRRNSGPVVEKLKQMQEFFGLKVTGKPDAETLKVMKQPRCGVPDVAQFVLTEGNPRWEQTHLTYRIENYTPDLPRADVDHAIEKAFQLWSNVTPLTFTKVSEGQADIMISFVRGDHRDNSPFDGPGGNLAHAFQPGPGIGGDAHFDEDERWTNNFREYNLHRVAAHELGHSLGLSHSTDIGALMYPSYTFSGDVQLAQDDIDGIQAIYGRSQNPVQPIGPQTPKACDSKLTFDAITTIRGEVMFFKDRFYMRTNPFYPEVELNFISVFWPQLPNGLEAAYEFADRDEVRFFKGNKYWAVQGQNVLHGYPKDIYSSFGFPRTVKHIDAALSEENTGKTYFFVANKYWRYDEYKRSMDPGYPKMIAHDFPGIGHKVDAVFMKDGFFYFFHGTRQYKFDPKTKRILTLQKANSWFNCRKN
The data set is described as follows: In vitro inhibition of matrix metalloprotease-1.

In data set [2] the target is T2, Disintegrin and metalloproteinase domain-containing protein 17 (Homo sapiens, UniProt P78536). Kind of data set: Inhibition of human recombinant tumor necrosis factor-alpha converting enzyme.
Data set [3] deals with Collagenase 3 (Homo sapiens, UniProt P45452). Kind of data set: In vitro inhibition of matrix metalloprotease-13.
Data set [4] addresses T2, Disintegrin and metalloproteinase domain-containing protein 17. The data set is described as follows: Inhibition of Tumor necrosis factor-alpha (TNF-alpha) release in human whole blood. The data set is classed as functional, tissue-based.
Data set [5] in a line: Half life in rat i.v. Conditions: in vivo, iv. In kind it is ADME, organism-based.
Data set [6] in a line: Pharmacokinetic property (Vdss) in rat. To be noted: in vivo, read-out: Vdss. The data set is classed as ADME, organism-based.
Data set [7] has as its system Rattus norvegicus. Kind of data set: Inhibition of TNF-alpha production in an acute rat LPS-induced model at the dose of 30 mg/kg. In kind it is functional.
The nature of data set [8]: (§1) Pharmacokinetic property (Clp) in rat. The data set is classed as ADME, organism-based. To be noted: plasma, read-out: Clp.
Data set [9] is described as follows: Half in rat i.v. In kind it is ADME, organism-based. Conditions: in vivo, iv.
For data set [10], the species on record is Rattus norvegicus. Described as §1. In kind it is ADME, organism-based. To be noted: in vivo.
The species named for data set [11] is Rattus norvegicus. The data set is described as follows: Concentration required for TNF-alpha production in an acute rat LPS-induced model. The data set is classed as functional.

T2 sequence (P78536 whole entry, the tested form may be a part): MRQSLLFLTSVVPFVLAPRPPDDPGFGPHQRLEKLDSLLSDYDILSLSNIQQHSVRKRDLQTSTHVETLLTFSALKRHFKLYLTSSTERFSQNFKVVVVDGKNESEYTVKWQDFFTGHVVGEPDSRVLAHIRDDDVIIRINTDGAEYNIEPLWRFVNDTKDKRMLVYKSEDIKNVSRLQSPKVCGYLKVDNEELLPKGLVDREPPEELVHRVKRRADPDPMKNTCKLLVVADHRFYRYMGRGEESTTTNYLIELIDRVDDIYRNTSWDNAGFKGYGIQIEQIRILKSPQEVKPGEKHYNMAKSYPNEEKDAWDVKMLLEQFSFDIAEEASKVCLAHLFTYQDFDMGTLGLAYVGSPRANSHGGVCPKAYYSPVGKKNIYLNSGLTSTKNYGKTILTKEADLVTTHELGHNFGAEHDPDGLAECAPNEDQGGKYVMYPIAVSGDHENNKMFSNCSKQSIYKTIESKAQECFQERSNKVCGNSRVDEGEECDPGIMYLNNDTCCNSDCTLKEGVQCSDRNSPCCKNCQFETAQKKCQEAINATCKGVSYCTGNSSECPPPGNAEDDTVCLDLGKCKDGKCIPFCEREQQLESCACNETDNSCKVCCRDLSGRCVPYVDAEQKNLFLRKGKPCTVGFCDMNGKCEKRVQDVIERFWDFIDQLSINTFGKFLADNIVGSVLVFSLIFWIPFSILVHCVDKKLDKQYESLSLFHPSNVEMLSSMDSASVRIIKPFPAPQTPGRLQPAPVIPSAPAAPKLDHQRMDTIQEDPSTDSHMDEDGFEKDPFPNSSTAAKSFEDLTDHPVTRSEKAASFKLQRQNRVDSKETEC

Take `COC(=O)N1CCN(S(=O)(=O)c2ccc(OCc3ccccc3C)cc2)[C@@H](C(=O)NO)[C@@H]1C`: the half-maximal inhibitory concentration (IC50) amounted to 1500 nM in [1], 14 nM in [2], 4 nM in [3] and 2000 nM in data set [4].

Turning to `CC(=O)N1CCN(S(=O)(=O)c2ccc(OCc3ccnc4ccccc34)cc2)[C@@H](C(=O)NO)[C@@H]1C`, the IC50 in data set [1] stood at 830 nM; in data set [3], 17 nM; in data set [4], 300 nM.

For the compound `CCOC(=O)N1CCN(S(=O)(=O)c2ccc(OCc3ccccc3C)cc2)[C@@H](C(=O)NO)[C@@H]1C`, the IC50 in [1] turned out to be 1500 nM; in [2], 28 nM; in data set [3], 6 nM; in data set [4], 3000 nM.

As to `C#CCOc1ccc(S(=O)(=O)N(C)c2c(C)cc(Br)cc2C(=O)NO)cc1`, the IC50 in data set [1] is 52 nM; in [3] it was 113 nM.

In the case of `Cc1ccc(S(=O)(=O)N2CCN(S(=O)(=O)c3ccc(OCc4ccccc4C)cc3)[C@@H](C(=O)NO)[C@@H]2C)cc1`, the half-maximal inhibitory concentration (IC50) in data set [2] worked out at 32 nM; in data set [4] it was 26000 nM.

On to `CC(=O)N1CCN(S(=O)(=O)c2ccc(OCc3ccccc3C(F)(F)F)cc2)[C@@H](C(=O)NO)[C@@H]1C`, for which the 50% inhibitory concentration (IC50) in [1] was found to be 10000 nM; in [2], 11 nM; in data set [3], 127 nM; in [4], 2000 nM.

With `CCc1ccccc1COc1ccc(S(=O)(=O)N2CCN(C(C)=O)[C@@H](C)[C@@H]2C(=O)NO)cc1`, the 50% inhibitory concentration (IC50) in [1] came to 6700 nM; in data set [2] it was 7 nM; in [3], 40 nM; in data set [4], 600 nM.

With `Cc1ccccc1COc1ccc(S(=O)(=O)N2CCN[C@@H](C)[C@@H]2C(=O)NO)cc1`, the IC50 in [1] stood at 12000 nM; in data set [3], 19 nM; in data set [4], 2000 nM. In addition, the half-life in data set [5] was 14.4 min. In addition, in data set [6], the Vd turned out to be 1.1 L/kg. This compound also had an inhibition in vivo at 30 mg/kg in data set [7] of 39%. Further, in data set [8], the clearance is 83 mL/min/kg.

With `Cc1ccccc1COc1ccc(S(=O)(=O)N2CCN(S(C)(=O)=O)[C@@H](C)[C@@H]2C(=O)NO)cc1`, the IC50 in data set [1] was 1300 nM; in data set [2] it was 6 nM; in data set [3], 4 nM; in data set [4] it was 1000 nM. The Vd in data set [6] worked out at 2.1 L/kg. In addition, the half-life in data set [9] is 12.6 min. Besides, the inhibition in vivo at 30 mg/kg in data set [7] was 55%. Also, in data set [10], the Clp came out at 98 mL/min/kg.

In the case of `C[C@@H]1NCCN(S(=O)(=O)c2ccc(OCc3ccccc3)cc2)[C@H]1C(=O)NO`, the concentration for half-maximal inhibition (IC50) came out at 12000 nM in data set [1], 11 nM in [3] and 18000 nM in data set [4].

In the case of `Cc1ccccc1COc1ccc(S(=O)(=O)N2CCN(Cc3ccccc3)[C@@H](C)[C@@H]2C(=O)NO)cc1`, the values for the IC50 in [1], in [2] and in data set [4] were 17000 nM, 68 nM and 33000 nM, respectively.

Regarding `CC(=O)N1CCN(S(=O)(=O)c2ccc(OCc3cccnc3C)cc2)[C@@H](C(=O)NO)[C@@H]1C`, the concentration for half-maximal inhibition (IC50) in data set [1] was found to be 3400 nM; in data set [2] it was 5 nM; in data set [3], 8 nM; in data set [4], 800 nM.

As for `CC(=O)N1CCN(S(=O)(=O)c2ccc(OCc3ccc(F)cc3)cc2)[C@@H](C(=O)NO)[C@@H]1C`, the IC50 worked out at 1700 nM in [1], 6 nM in [2], 3 nM in data set [3] and 2000 nM in data set [4].

As for `Cc1ccccc1COc1ccc(S(=O)(=O)N2CCN(C)[C@@H](C)[C@@H]2C(=O)NO)cc1`, the IC50 turned out to be 31 nM in data set [2] and 33000 nM in [4].

Turning to `CC[C@H](C)[C@H](NC(=O)C(CC(C)C)[C@H](C(C)C)N(O)C=O)C(=O)Nc1ccccn1` (stereo partly specified), the IC50 in data set [1] is 19 nM; in data set [2] it was 40 nM; in data set [3], 7 nM.

Regarding `CC(=O)N1CCN(S(=O)(=O)c2ccc(OCc3cc(F)ccc3C)cc2)[C@@H](C(=O)NO)[C@@H]1C`, the concentration for half-maximal inhibition (IC50) in data set [1] came to 1900 nM; in [2], 7 nM; in data set [3] it was 7 nM; in data set [4] it was 1000 nM.

For `CC(=O)N1CCN(S(=O)(=O)c2ccc(OCc3ccccc3C)cc2)[C@@H](C(=O)NO)[C@@H]1C`, the values for the 50% inhibitory concentration (IC50) in data set [2] and in data set [4] were 6 nM and 1000 nM, respectively. Moreover, in data set [5], the half-life is 16.2 min. The Vd in data set [6] came to 0.6 L/kg. The same compound showed a 50% effective dose (ED50) in [11] of 17 mg/kg. Besides, in data set [8], the clearance was 54 mL/min/kg.

With `Cc1ccccc1COc1ccc(S(=O)(=O)N2CCN(C(=O)Nc3ccccc3)[C@@H](C)[C@@H]2C(=O)NO)cc1`, the IC50 turned out to be 2200 nM in data set [1], 26 nM in data set [2] and 12000 nM in data set [4].

Regarding `CC(=O)N1CCN(S(=O)(=O)c2ccc(OCc3cncc4ccccc34)cc2)[C@@H](C(=O)NO)[C@@H]1C`, the IC50 in [1] came to 6400 nM; in [3], 98 nM; in data set [4], 400 nM.

On to `CC(=O)N1CCN(S(=O)(=O)c2ccc(OCc3cc(F)cc(F)c3)cc2)[C@@H](C(=O)NO)[C@@H]1C`, for which the IC50 stood at 3800 nM in [1], 6 nM in data set [2], 20 nM in [3] and 1000 nM in data set [4].

Consider `Cc1ccccc1COc1ccc(S(=O)(=O)N2CCN(C(=O)NC(C)C)[C@@H](C)[C@@H]2C(=O)NO)cc1`, for which the IC50 in [1] worked out at 1400 nM; in data set [2], 34 nM; in [3], 4 nM; in data set [4], 3000 nM.

For orientation: IC50 means the point on the concentration scale where inhibition reaches its midpoint. One may read the half-life as the time needed for the level to fall by half in the phase considered. As a reminder, the inhibition in vivo is the share of the control response that was lost under treatment. For orientation: ED50 means the midpoint of the dose-response relation. A low value points to an effect at a small dose.
